Experiments:
Format in all cases: cell-based
BRD4 [1] = molecular target: T1, BRD4 (Homo sapiens, UniProt O60885); assay: BRD4 protein degradation by western blotting in RPMI2650 cells (24 h treatment); set-up: To evaluate the resolution of PROTAC for BRD4 expressed in cells; endogenous in cells; host or cells: RPMI2650; settings: read-out: BR04 (DC50), RPMI2650
How it was run: (§1)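 Cells seeded at 5 X 10^5 cells/well and exposed to serially diluted compound for 24 hours. Western blot bands were quantified by densitometry, normalized to β-actin or GAPDH and expressed as % of 0.1% DMSO vehicle. DC50 is the concentration giving 50% loss of protein.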

MDA-MB-231 = assay: Cancer cell antiproliferative activity / cell viability in MDA-MB-231 cells (72 h treatment); settings: Homo sapiens, read-out: BRD4 (IC50)
Experimental: (§2) The human breast cancer cell line [MDA-MB-231] was cultured in RPMI medium with the addition of 10% fetal bovine serum, penicillin [100U/ml], and streptomycin [[…]]. The synthesized compounds were prepared with a 10 mM or 50 mM raw material solution dissolved in DMSO [dimethyl sulfoxide], and were diluted sequentially and treated. [RPMI2650] and [SNU2972] were cultivated under specific conditions.
(§3) To observe cell growth inhibition, cells were dispensed in a concentration of 5,000 cells/well in a 96-well plate, and samples prepared at various concentrations were treated for 72 hours. The IC50 value (the concentration of the compound achieving 50% cytostaticism) is the average value of the results of three independent measurements.

BRD4 [2] = molecular target: T1, BRD4; assay: BRD4 protein degradation by western blotting in MDA-MB-231 cells (24 h treatment); set-up: To evaluate the resolution of PROTAC for BRD4 expressed in cells; endogenous in cells; host or cells: MDA-MB-231
BRD4-NUT = molecular target: T2, BRD4-NUT (Homo sapiens, UniProt O60885+Q86Y26); assay: BRD4-NUT protein degradation by western blotting in RPMI2650 cells (24 h treatment); settings: read-out: BRD4-NUT (DC50), RPMI2650
T2 construct: endogenous in cells; host or cells: RPMI2650
How it was run: as §1

RPMI2650 = assay: Cancer cell antiproliferative activity / cell viability in RPMI2650 cells (72 h treatment); settings: Homo sapiens, RPMI-2650, RPMI2650, read-out: BRD4 (IC50)
How it was run: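 RPMI2650 human cells were grown under specific culture conditions and seeded at 5,000 cells/well in 96-well plates. Test compounds, dissolved in DMSO as 10 mM or 50 mM stock solutions and serially diluted, were applied at various concentrations for 72 hours. IC50, the concentration giving 50% cytostasis, was averaged over three independent measurements.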

SNU2972 = assay: Cancer cell antiproliferative activity / cell viability in SNU2972 cells (72 h treatment); settings: read-out: BRD4 (IC50)
Experimental: as §2, §3

Compound | DC50 (BRD4 [1]) [nM] | IC50 (MDA-MB-231) [nM] | DC50 (BRD4 [2]) [nM] | DC50 (BRD4-NUT) [nM] | IC50 (RPMI2650) [nM] | IC50 (SNU2972) [nM]
Cc1sc2c(c1C)C(c1ccc(Cl)cc1)=N[C@@H](CC(=O)N1CCC(CN3CCN(c4cc5cnn(C6CCC(=O)NC6=O)c(=O)c5cc4F)CC3)CC1)c1nnc(C)n1-2 (stereo partly drawn) [ICT-0000971, 3-(6-(4-((1-(2-((S)-4-(4-chlorophenyl)-2,3,9-trimethyl-6H-thieno[3,2-f][1,2,4]triazolo[4,3-a][1,4]diazepine-6-day)acetyl)piperidine-4-il)methyl)piperazine-1-yl)7-fluoro-1-oxopthalazine-2(1H)-yl)piperidine-2,6-dione] | < 100 | < 100 | < 100 | < 100 | < 100 | < 100
Cc1sc2c(c1C)C(c1ccc(Cl)cc1)=N[C@@H](CC(=O)N1CCC(CN3CCN(c4cc5c(=O)n(C6CCC(=O)NC6=O)ncc5cc4F)CC3)CC1)c1nnc(C)n1-2 (stereo partly drawn) [ICT-0000972, 3-(7-(4-((1-(2-((S)-4-(4-chlorophenyl)-2,3,9-trimethyl-6H-thieno[3,2-f][1,2,4]triazolo[4,3-a][1,4]diazepine-6-day)acetyl)piperidine-4-il)methyl)piperazine-1-yl)-6-fluoro-1-oxopthalazine-2(1H)-yl)piperidine-2,6-dione] | < 100 | < 100 | < 100 | < 100 | 100 to 1000 | < 100
Cc1sc2c(c1C)C(c1ccc(Cl)cc1)=N[C@@H](CC(=O)N1CCC(CN3CCN(c4ccc5c(C)nn(C6CCC(=O)NC6=O)c(=O)c5c4)CC3)CC1)c1nnc(C)n1-2 (stereo partly drawn) [ICT-0000982, 3-(7-(4-((1-(2-((S)-4-(4-chlorophenyl)-2,3,9-trimethyl-6H-thieno[3,2-f][1,2,4]triazolo[4,3-a][1,4]diazepine-6-day)acetyl)piperidine-4-il)methyl)piperazine-1-yl)4-methyl-1-oxopthalazine-2(1H)-yl)piperidine-2,6-dione] | < 100 | < 100 | < 100 | < 100 | < 100 | < 100
Cc1sc2c(c1C)C(c1ccc(Cl)cc1)=N[C@@H](CC(=O)N1CC(N3CCN(c4ccc5c(=O)n(C6CCC(=O)NC6=O)ncc5c4)CC3)C1)c1nnc(C)n1-2 (stereo partly drawn) [ICT-0000973, 3-(6-(4-(1-(2-((S)-4-(4-chlorophenyl)-2,3,9-trimethyl-6H-thieno[3,2-f][1,2,4]triazolo[4,3-a][1,4]diazepine-6-day)acetyl)azetidine-3-il)piperazine-1-yl)-1-oxopthalazine-2(1H)-yl)piperidine-2,6-dione] | < 100 | < 100 | < 100 | < 100 | 100 to 1000 | 100 to 1000
